Measurements taken from patent publication US20240277902A1, “METHOD FOR MANUFACTURING PERIPHERAL NERVE-MIMICKING MICROTISSUE AND USES THEREOF” (INNOSTEM BIO, priority 2021, published 2024).

System: constituent cells in the peripheral nerve-mimicking microtissue
Assay: Cytoprotection by NAC and DEX in suspension culture (LIVE/DEAD, immunofluorescence)
Assay type: cell-based
Conditions: 1 mM NAC, 3 days
Description: As a result of limitation in oxygen and nutrient exchange during the production process of peripheral nerve-mimicking microtissues, ROS accumulates in tissues, leading to cell damage and death. The Example is intended to present a cytoprotection method by dexamethasone (DEX) and N-acetylcysteine (NAC) to inhibit cell damage and death. PNSCs collected from the monolayer culture environment are suspended in a suspension culture medium at a density of 1.0E+06/mL. […] 1.0×10^5 cells per cm^2 area of a culture vessel is seeded in the ULA T75 flask (SPL Life Sciences) culture vessel. 1 mM NAC, 1 μM DEX, NAC and DEX were added simultaneously in 15 mL of suspension culture medium and cultured for 3 days. Cell death was assessed by LIVE/DEAD staining, and, for cell death, the survival rate was evaluated by calculating the total number of cells stained with DAPI and counting the number of cells that are positive for ethidium homodimer-1 (EthD-1). Moreover, the expression of p38 MAPK and cleaved caspase, which are factors that regulate cell death, and the degree of expression of p-Akt, an anti-cell death regulating factor, were evaluated through immunofluorescence staining.

With `CC(=O)N[C@@H](CS)C(=O)O` [NAC, N-acetylcysteine] the “cytoprotective effect on constituent cells in the microtissue (survival rate, LIVE/DEAD, EthD-1)” value (1 μM DEX, or both in suspension culture medium) was “protective effect” and the “expression of Hif, p38 MAPK, and cleaved caspase (cell death proteins)” value (1 μM DEX, or both, immunofluorescence staining) was “significantly inhibit”.
